Tested on: A-CHK1 mESCs
Test: Aphidicolin sensitivity of A-CHK1 mESCs (crystal violet staining)
Format: cell-based, mouse
Experimental: FIG. 5A is a western blot analysis depicting endogenous CHK1 (*) and AID^47-CHK1 (A-CHK1, **) in four selected clones and in parental non-infected mESCs. […] serves as a loading control. Experiment was repeated three times for clones #1 and #2, and a representative blot is presented. In FIG. 5B, A-CHK1 #2 mESCs were treated with ethanol (“Con”) or auxin (“IAA”) for 1 day. Cells were then treated with the indicated concentrations of aphidicolin (“Aph”). Equal concentrations of DMSO were applied to all conditions. The next day, cells were stained with crystal violet and plates were scanned. […] In FIG. 5C, mESC clones were pretreated with […] aphidicolin for 1 day and were then treated with auxin for the indicated time periods. Left panel: mitotic index was calculated as the percentage of H3^pS10-positive cells with 4N DNA content, measured by flow cytometry. […] Tyr15 phosphorylation of CDK1 (“CDKlpY^15”) was detected using a phospho-specific antibody. β-Actin serves as a loading control. […]
CCE mESCs were infected with pRAIDRS A-CHK1 or GFP-A. Selected clones were analyzed for their CHK1-dependent response to aphidicolin treatment. […] Cells were then treated with 1 μM 5 aphidicolin (“Aph”) or 0.001% DMSO for 12 hours and analyzed for DNA content using propidium iodide (“PI”). […] Apoptotic index was calculated as the percentage of Annexin V-positive, 7-AAD-negative cells. […]

Structure (SMILES): C[C@@]1(CO)[C@H](O)CC[C@@]2(C)[C@H]1CC[C@H]1C[C@@H]3C[C@@]12CC[C@]3(O)CO [aphidicolin, Aphidicolin]
- aphidicolin concentration after which cells died (auxin-treated (CHK1-depleted) A-CHK1 mESCs): 0.1 mM
- fold higher aphidicolin concentration at which control cells survived (control-treated A-CHK1 cells versus auxin-treated cells): 100 fold

Reference: patent US11078496B2, “System for F-box hormone receptor regulated protein expression in mammalian cells” (ICAHN SCHOOL OF MEDICINE AT MOUNT SINAI, priority 2016, dated 2021)
